Laboratory results as given in the supplement of paper PMC10307832.

Tests used:
Assay in all cases: relative viability (nuclei count vs DMSO), 5 days (fraction); higher = more cells survive
[1] = compound: Nc1ccccc1NC(=O)c1ccc(CNC(=O)OCc2cccnc2)cc1 [Entinostat] + C[C@@H](Oc1cc(-c2cnn(C3CCNCC3)c2)cnc1N)c1c(Cl)ccc(F)c1Cl [Crizotinib] (partner 1 µM)
How it was run: (§1)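 Dosing by pin tool came one day after lung cancer cell lines were seeded in 1536-well plates, using either one drug or a fixed anchor-drug dose plus five library-drug doses (not always all listed) in √10 steps. After 5 days, nuclei were counted on 4× images. Relative viability is treated-well nuclei count divided by vehicle-well nuclei count, and values are medians of duplicate plates.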

[2] = compound: Nc1ccccc1NC(=O)c1ccc(CNC(=O)OCc2cccnc2)cc1 [Entinostat] + O=C(CCCCCCC(=O)Nc1ccccc1)NO [Vorinostat] (partner 1 µM)
How it was run: as §1

[3] = compound: CN1CCC(CNc2ccc3ncc(-c4cccc(OC(F)(F)F)c4)n3n2)CC1 [SGI-1776] + Cc1cc(Nc2cc(N3CCN(C)CC3)nc(Sc3ccc(NC(=O)C4CC4)cc3)n2)n[nH]1 [Tozasertib] (partner 0.1 µM)
How it was run: as §1

[4] = compound: C1COCCN1C2=NC(=NC3=C2OC4=C3C=CC=N4)C5=CC(=CC=C5)NC(=O)C6=CN=C(C=C6)N + COc1cccc2cc(-c3nc([C@H]4CC[C@H](C(=O)O)CC4)n4ncnc(N)c34)[nH]c12 [OSI-027] (partner 0.5 µM)
How it was run: as §1

Cell Line | relative viability ([1]; first compound 0.02 µM) | relative viability ([1]; first compound 0.06325 µM) | relative viability ([1]; first compound 0.2 µM) | relative viability ([1]; first compound 0.6325 µM) | relative viability ([1]; first compound 2 µM) | relative viability ([2]; first compound 0.02 µM) | relative viability ([2]; first compound 0.06325 µM) | relative viability ([2]; first compound 0.2 µM) | relative viability ([2]; first compound 0.6325 µM) | relative viability ([2]; first compound 2 µM) | relative viability ([3]; first compound 0.08 µM) | relative viability ([3]; first compound 0.8 µM) | relative viability ([3]; first compound 2.53 µM) | relative viability ([3]; first compound 8 µM) | relative viability ([4]; first compound 0.02 µM) | relative viability ([4]; first compound 0.06325 µM) | relative viability ([4]; first compound 0.2 µM) | relative viability ([4]; first compound 0.6325 µM) | relative viability ([4]; first compound 2 µM)
EKVX | 0.81 | 0.977 | 1.03 | 0.819 | 0.432 | 0.801 | 0.654 | 0.65 | 0.467 | 0.42 | 0.4 | 0.398 | 0.307 | 0.235 | 0.626 | 0.484 | 0.888 | 0.673 | 0.558
LC-2-ad | 0.521 | 0.4 | 0.36 | 0.296 | 0.241 | 0.666 | 0.686 | 0.695 | 0.356 | 0.257 | 0.451 | 0.309 | 0.336 | 0.261 | 0.834 | 0.981 | 0.747 | 0.72 | 0.625
ABC-1 | 0.925 | 1.24 | 1.17 | 0.814 | 0.28 | 1.34 | 1.35 | 0.854 | 0.759 | 0.511 | 0.175 | 0.134 | 0.173 | 0.175 | 0.462 | 0.451 | 0.461 | 0.368 | 0.407
NCI-H596 | 1 | 0.982 | 0.992 | 0.978 | 0.52 | 0.603 | 0.694 | 0.708 | 0.589 | 0.41 | 1.07 | 1.04 | 0.792 | 0.577 | 0.674 | 0.735 | 0.65 | 0.526 | 0.373
NCI-H1734 | 0.622 | 0.709 | 0.894 | 0.555 | 0.423 | 0.846 | 0.861 | 0.84 | 0.604 | 0.489 | 0.245 | 0.226 | 0.246 | 0.219 | 0.719 | 0.638 | 0.576 | 0.542 | 0.417
